The source of these data is patent US11401286B2 (Tetra Discovery Partners, LLC, priority 2012, dated 2022).

Each structure is given as a SMILES string. Where a name gives a salt, the structure may show the parent alone.

The target in the first experiment is PDE4D7 (Homo sapiens (Human), UniProt Q08499).
Sequence of PDE4D7 (Q08499 other isoform, or with tags, fused parts or gaps): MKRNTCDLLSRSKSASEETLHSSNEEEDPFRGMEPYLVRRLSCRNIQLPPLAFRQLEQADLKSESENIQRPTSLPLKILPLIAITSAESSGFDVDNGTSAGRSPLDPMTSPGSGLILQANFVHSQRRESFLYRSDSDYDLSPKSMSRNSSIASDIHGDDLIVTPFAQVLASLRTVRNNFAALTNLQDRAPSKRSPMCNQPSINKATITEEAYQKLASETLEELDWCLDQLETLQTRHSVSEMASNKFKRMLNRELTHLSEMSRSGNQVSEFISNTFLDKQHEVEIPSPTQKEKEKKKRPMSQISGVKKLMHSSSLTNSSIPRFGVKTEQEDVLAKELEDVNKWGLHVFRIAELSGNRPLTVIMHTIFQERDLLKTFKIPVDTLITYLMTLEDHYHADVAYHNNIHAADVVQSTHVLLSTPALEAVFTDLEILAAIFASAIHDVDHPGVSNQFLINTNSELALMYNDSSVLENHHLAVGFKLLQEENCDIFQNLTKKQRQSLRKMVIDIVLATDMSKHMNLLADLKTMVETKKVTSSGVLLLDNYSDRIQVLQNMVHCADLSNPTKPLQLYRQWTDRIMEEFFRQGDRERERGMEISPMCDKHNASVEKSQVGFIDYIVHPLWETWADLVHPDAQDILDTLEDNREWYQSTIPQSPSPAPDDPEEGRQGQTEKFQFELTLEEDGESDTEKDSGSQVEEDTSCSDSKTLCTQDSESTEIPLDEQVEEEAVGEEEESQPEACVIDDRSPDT
Conditions: not given
In the case of `OCCc1ccc(Nc2ccnc(-c3cccc(Cl)c3)c2)cc1` [Example 84, 2-(4-((2-(3-Chlorophenyl)pyridin-4-yl)amino)phenyl)ethanol hydrochloride], the 50% inhibitory concentration (IC50) was more than 1000 nM.
`COC(=O)Cc1ccc(Cc2cc(C3CC3)nc(-c3cccc(Cl)c3)n2)cc1` [Example 208, Methyl 2-(4-((2-(3-chlorophenyl)-6-cyclopropylpyrimidin-4-yl)methyl)phenyl)acetate] registered an IC50 of more than 1000 nM.

Staying with this experiment, now noted: read-out: PDE4D7 IC50.
For the compound `CCc1cc(Oc2ccc(CCO)cc2)nc(-c2cccc(Cl)c2)n1` [Example 182, 2-(4-((2-(3-Chlorophenyl)-6-ethylpyrimidin-4-yl)oxy)phenyl)ethanol], the IC50 was less than 1000 nM.
Still for that read-out and setting: the same measure for `CCc1cc(Nc2ccc(CCO)cc2)nc(-c2cccc(Cl)c2)n1` [Example 191, 2-(4-((2-(3-chlorophenyl)-6-ethylpyrimidin-4-yl)amino)phenyl)ethanol]: less than 1000 nM; for `CCc1nc(Nc2ccc(CCCO)cc2)nc(-c2cccc(Cl)c2)n1` [Example 81, 3-(4-((4-(3-Chlorophenyl)-6-ethyl-1,3,5-triazin-2-yl)amino)phenyl)propan-1-ol]: less than 1000 nM.

The same experiment, now with this note: read-out: PDE4D7 IC50; PDE4D7 without asterisk.
In the case of `CC(C)(CO)c1ccc(Cc2cc(-c3cccc(Cl)c3)nc3c2CCC3)cc1` [Example 128, 2-(4-((2-(3-Chlorophenyl)-6,7-dihydro-5H-cyclopenta[b]pyridin-4-yl)methyl)phenyl)-2-methylpropan-1-ol hydrochloride], the IC50 was more than 1000 nM.
For `O=C(O)Cc1ccc(Nc2nc(-c3ccc(Cl)cc3)nc(C3CC3)n2)cc1` [Example 37, 2-(4-((4-(4-chlorophenyl)-6-cyclopropyl-1,3,5-triazin-2-yl)amino)phenyl)acetic acid], the half-maximal inhibitory concentration (IC50) was more than 1000 nM.
Still for that read-out and setting: the value for `Clc1cccc(-c2nc3c(c(Nc4ccc(Cc5ncco5)cc4)n2)CCC3)c1` [Example 179, 2-(3-Chlorophenyl)-N-(4-(oxazol-2-ylmethyl)phenyl)-6,7-dihydro-5H-cyclopenta[d]pyrimidin-4-amine] was more than 1000 nM; that for `OCCc1ccc(Nc2cc(-c3ccc(Cl)c(Cl)c3)nc3c2CCC3)cc1` [Example 154, 2-(4-((2-(3,4-Dichlorophenyl)-6,7-dihydro-5H-cyclopenta[b]pyridin-4-yl)amino)phenyl)ethanol hydrochloride] was more than 1000 nM; that for `CCc1c(C)nc(-c2ccc(Cl)s2)nc1Nc1ccc(CC(=O)NC#N)cc1` [Example 301, 2-[4-[[2-(5-Chloro-2-thienyl)-5-ethyl-6-methyl-pyrimidin-4-yl]amino]phenyl]-N-cyano-acetamide] was more than 1000 nM.
On the same count and under the same terms, the value for `CCc1nc(Nc2ccc(C#N)cc2)nc(-c2cccc(Cl)c2)n1` [Example 51, 4-(4-(3-chlorophenyl)-6-ethyl-1,3,5-triazin-2-ylamino)benzonitrile] was less than 1000 nM; that for `CCc1c(C)nc(-c2ccc(Cl)s2)nc1Nc1ccc(CC(=O)NC)cc1` [Example 308, 2-[4-[[2-(5-Chloro-2-thienyl)-5-ethyl-6-methyl-pyrimidin-4-yl]amino]phenyl]-N-methyl-acetamide] was more than 1000 nM; that for `OCCc1ccc(Nc2cc(-c3ccc[nH]3)nc3c2CCC3)cc1` [Example 132, 2-(4-((2-(1H-Pyrrol-2-yl)-6,7-dihydro-5H-cyclopenta[b]pyridin-4-yl)amino)phenyl)ethanol hydrochloride] was more than 1000 nM.
The same measure, in the same setting: the value for `O=C(O)Cc1ccc(Nc2cc(C(F)(F)F)nc(-c3ccc(Cl)s3)n2)cc1` [Example 296, 2-[4-[[2-(5-Chloro-2-thienyl)-6-(trifluoromethyl)pyrimidin-4-yl]amino]phenyl]acetic acid] was more than 1000 nM; that for `N#CCc1ccc(Nc2nc(-c3cccc(Cl)c3)nc3c2CCC3)cc1` [Example 19, 2-[4-[[2-(3-chlorophenyl)-6,7-dihydro-5H-cyclopenta[d]pyrimidin-4-yl]amino]phenyl]acetonitrile] was more than 1000 nM.
Turning to `OCCc1ccc(Nc2cc(N3CCNCC3)nc3c2CCC3)cc1` [Example 238, 2-(4-((2-(Piperazin-1-yl)-6,7-dihydro-5H-cyclopenta[b]pyridin-4-yl)amino)phenyl)ethanol hydrochloride], the half-maximal inhibitory concentration (IC50) was more than 1000 nM.
Take `COC(=O)Cc1ccc(Cc2cc(C(F)(F)F)nc(-c3cccc(Cl)c3)n2)cc1` [Example 203, Methyl 2-(4-((2-(3-chlorophenyl)-6-(trifluoromethyl)pyrimidin-4-yl)methyl)phenyl)acetate]: the IC50 is more than 1000 nM.
In the case of `O=C(Cc1ccc(Nc2cc(C3CC3)nc(-c3cccc(Cl)c3)n2)nc1)NCCO` [Example 215, 2-(6-((2-(3-Chlorophenyl)-6-cyclopropylpyrimidin-4-yl)amino)pyridin-3-yl)-N-(2-hydroxyethyl)acetamide], the IC50 was less than 1000 nM.
On the same count and under the same terms, the same measure for `COC(=O)c1ccc(Nc2cc(-c3cccc(Cl)c3)nc3c2CCC3)cc1` [Example 87, Methyl 4-((2-(3-chlorophenyl)-6,7-dihydro-5H-cyclopenta[b]pyridin-4-yl)amino)benzoatehydrochloride]: more than 1000 nM.
The same measure, in the same setting: the same measure for `CCc1cc(Nc2ccc(CCN(C)C)cc2)nc(-c2cccc(Cl)c2)n1` [Example 170, 2-(3-Chlorophenyl)-N-(4-(2-(dimethylamino)ethyl)phenyl)-6-ethylpyrimidin-4-amine hydrochloride]: more than 1000 nM.
`NC(=O)Cc1ccc(Cc2cc(C(F)(F)F)nc(C3CCCC3)n2)cc1` [Example 230, 2-(4-((2-Cyclopentyl-6-(trifluoromethyl)pyrimidin-4-yl)methyl)phenyl)acetamide]: the IC50 was more than 1000 nM.
The same measure, in the same setting: the same measure for `OCCc1ccc(Nc2cc(C(F)(F)F)nc(OC3CCCC3)n2)cc1` [Example 199, 2-(4-((2-(Cyclopentyloxy)-6-(trifluoromethyl)pyrimidin-4-yl)amino)phenyl)ethanol]: less than 1000 nM; for `O=S1(=O)CCCc2nc(-c3cccc(Cl)c3)nc(Cc3ccc(CCO)cc3)c21` [Example 278, 2-(3-chlorophenyl)-4-(4-(2-hydroxyethyl)benzyl)-7,8-dihydro-6H-thiopyrano[3,2-d]pyrimidine 5,5-dioxide]: less than 1000 nM.
For the compound `NC(=O)Cc1ccc(Nc2nc(-c3ccccc3)nc3c2S(=O)(=O)CCC3)cc1` [Example 269, 2-(4-((5,5-dioxido-2-phenyl-7,8-dihydro-6H-thiopyrano[3,2-d]pyrimidin-4-yl)amino)phenyl)acetamide], the half-maximal inhibitory concentration (IC50) is less than 1000 nM.
On the same count and under the same terms, the value for `CCc1c(Nc2ccc(CC(=O)O)cc2)cc(-c2cccc(Cl)c2)nc1C` [Example 7, 2-[4-[[6-(3-Chlorophenyl)-3-ethyl-2-methyl-4-pyridyl]amino]phenyl]acetic acid] was more than 1000 nM; that for `COCCc1ccc(Nc2cc(-c3cccc(Cl)c3)nc3c2CCC3)cc1` [Example 86, 2-(3-Chlorophenyl)-N-(4-(2-methoxyethyl)phenyl)-6,7-dihydro-5H-cyclopenta[b]pyridin-4-amine hydrochloride] was more than 1000 nM; that for `NC(=O)CCc1ccc(Nc2cc(-c3cccc(Cl)c3)nc3c2CCC3)cc1` [Example 119, 3-(4-((2-(3-chlorophenyl)-6,7-dihydro-5H-cyclopenta[b]pyridin-4-yl)amino)phenyl)propanamide hydrochloride] was more than 1000 nM.
On the same count and under the same terms, the same measure for `C[C@@H](O)Cc1ccc(Nc2cc(-c3cccc(Cl)c3)nc3c2CCC3)cc1` [Example 106, (R)-1-(4-((2-(3-Chlorophenyl)-6,7-dihydro-5H-cyclopenta[b]pyridin-4-yl)amino)phenyl)propan-2-ol]: more than 1000 nM; for `OCCc1ccc(Nc2cc(C3=CCCC3)nc3c2CCC3)cc1` [Example 248, 2-(4-((2-(Cyclopent-1-en-1-yl)-6,7-dihydro-5H-cyclopenta[b]pyridin-4-yl)amino)phenyl)ethanol hydrochloride]: more than 1000 nM; for `NC(=O)Cc1ccc(Nc2cc(C(F)(F)F)nc(C3CCCC3)n2)cc1` [Example 228, 2-(4-((2-Cyclopentyl-6-(trifluoromethyl)pyrimidin-4-yl)amino)phenyl)acetamide]: less than 1000 nM.
Still for that read-out and setting: the value for `OC[C@H]1CC[C@H](Nc2cc(-c3cccc(Cl)c3)nc3c2CCC3)CC1` [Example 93, Trans-4-((2-(3-Chlorophenyl)-6,7-dihydro-5H-cyclopenta[b]pyridin-4-yl)amino)cyclohexyl-methanol hydrochloride] was more than 1000 nM.
Consider `NC(=O)Cc1ccc(Nc2nc(-c3cccc(Cl)c3)nc3c2S(=O)(=O)CCC3)cc1` [Example 274, 2-(4-((2-(3-chlorophenyl)-5,5-dioxido-7,8-dihydro-6H-thiopyrano[3,2-d]pyrimidin-4-yl)amino)phenyl)acetamide], for which the half-maximal inhibitory concentration (IC50) was less than 1000 nM.
On the same count and under the same terms, the same measure for `CCCNC(=O)Cc1ccc(Nc2nc(-c3cccc(Cl)c3)nc3c2S(=O)(=O)CCC3)cc1` [Example 276, 2-(4-((2-(3-Chlorophenyl)-5,5-dioxido-7,8-dihydro-6H-thiopyrano[3,2-d]pyrimidin-4-yl)amino)phenyl)-N-propylacetamide]: more than 1000 nM.
On the same count and under the same terms, the same measure for `NC(=O)Cc1ccc(Cc2nc(-c3cccc(Cl)c3)nc3c2CCC3)cc1` [Example 68, 2-(4-((2-(3-chlorophenyl)-6,7-dihydro-5H-cyclopenta[d]pyrimidin-4-yl)methyl)phenyl)acetamide]: more than 1000 nM.
Still for that read-out and setting: the value for `OCCc1cccc(Nc2cc(-c3cccc(Cl)c3)nc3c2CCC3)c1` [Example 102, 2-(3-((2-(3-Chlorophenyl)-6,7-dihydro-5H-cyclopenta[b]pyridin-4-yl)amino)phenyl)ethanol hydrochloride] was more than 1000 nM; that for `NC(=O)Cc1ccc(Nc2cc(-c3ccc(Cl)s3)nc3c2CCC3)cc1` [Example 245, 2-(4-((2-(5-Chlorothiophen-2-yl)-6,7-dihydro-5H-cyclopenta[b]pyridin-4-yl)amino)phenyl)acetamide hydrochloride] was more than 1000 nM.
`NC(=O)Cc1ccc(Nc2cc(-c3cc(F)cc(Cl)c3)nc3c2CCC3)cc1` [Example 152, 2-(4-((2-(3-Chloro-5-fluorophenyl)-6,7-dihydro-5H-cyclopenta[b]pyridin-4-yl)amino)phenyl)acetamide hydrochloride]: the IC50 is more than 1000 nM.
